Measured values reported in patent US20230124862A1, “BISMUTH THIOL COMPOUNDS AND COMPOSITIONS AND METHODS OF TREATING MICROBIAL CO-INFECTIONS” (Microbion Corporation, priority 2020, published 2023).
Converted amounts (≈) assume the structure as drawn. “And” between values parts separate entries of the source, which are not always exact repeats. Identical values can stand only once. Like-named read-outs stand apart in the source and are kept apart here.

Columns and labels:
M. abscessus complex = test: MIC testing of CF isolates; assay type: cell-based, Mycobacterium abscessus
S. aureus [1] = test: Broth microdilution MIC (Example 11); assay type: cell-based, Staphylococcus aureus; details: Staphylococcus aureus, ATCC 29213 / MSSA, S. aureus MMX 101 (ATCC 29213); QC; MSSA; read-out: MIC
Enterococcus spp. = test: Broth microdilution MIC (Example 11); assay type: cell-based, E. faecalis, E. faecium; details: Lev^R Cip^R Ery^R, read-out: MIC
Enterobacteriaceae = details: E. coli MMX 102 (ATCC 25922); CLSI QC ranges shown in parenthesis; cited from earlier work
[2] = test system: P. aeruginosa and A. baumannii; details: P. aeruginosa MMX 103 (ATCC 27853); CLSI QC ranges shown in parenthesis; cited from earlier work
S. aureus [3] = details: S. aureus MMX 101 (ATCC 29213); cited from earlier work
[4] = test system: Gram-positive aerobic bacteria (S. aureus, MRSA, CA-MRSA); test: MIC90 against 150 clinical isolates of Gram-positive aerobic bacteria; assay type: cell-based; details: S. aureus (50 isolates)
[5] = test system: beta-hemolytic streptococci; test: Broth microdilution MIC (Example 11); assay type: cell-based, S. pyogenes, S. agalactiae; details: ERY^R CC^R, read-out: MIC
[6] = test system: vancomycin-intermediate Staphylococcus aureus (VISA); test: Broth microdilution MIC (Example 12); assay type: cell-based; details: Staphylococcus aureus, NRS 13 / VISA, all isolates except NRS 13; read-out: MIC values
[7] = assay type: physicochemical
[8] = test system: Anaerobes (Bacteroides fragilis, Clostridium difficile); test: Agar dilution MIC (Example 11); assay type: cell-based; details: read-out: MIC
Procedure: The susceptibility of anaerobic bacteria was determined by agar dilution using Brucella Agar (BD/BBL; Lot No. 5237692) supplemented with 5 μg/mL hemin (Sigma, St. Louis, Mo.; Lot No. 108K1088), 1 μg/mL Vitamin K1 and 5% (v/v) laked sheep blood (Cleveland Scientific, Bath, Ohio; Lot No. 322799).
Agar Dilution MIC Testing (Anaerobic Bacteria and Gonococci): MIC values for anaerobic bacteria were determined using a reference agar dilution method as described by CLSI (6). Organisms were grown at 35° C. in the Bactron II Anaerobic Chamber (Shel Lab, Cornelius, Oreg.) for approximately 48 hr prior to the assay. Drug dilutions and drug-supplemented agar plates were prepared manually per CLSI (6). The plates were allowed to stand at room temperature for 1 hr to allow the agar surface to dry and pre-reduced for approximately 1 hr in the anaerobe chamber prior to inoculation. Each isolate was suspended to the equivalent of a 0.5 McFarland standard in Brucella broth using a turbidity meter (Dade Behring MicroScan, West Sacramento, Calif.). Each bacterial cell suspension was then diluted 1:10 in Brucella broth and transferred to wells in a stainless steel replicator block which was used to inoculate the test plates. The prongs on the replicator deliver approximately 1-2 μl of inoculum to an agar surface. The resulting inoculum spots contained approximately 1×10^5 CFU/spot. After the inoculum dried, the inoculated drug-supplemented agar plates and no drug growth control plates were incubated at 35° C. for 42-48 hr in the anaerobe chamber. The MIC was read per CLSI guidelines (6).

[9] = test system: Pseudomonas aeruginosa strain PA01; test: Bacterial killing curves with and without CF patient sputum; assay type: cell-based; details: tobramycin 1 μg/mL, 10% CF sputum, most time points
P. aeruginosa = test: Checkerboard FIC/FICI assay; assay type: cell-based, Pseudomonas aeruginosa; details: Tobramycin in combination with BisEDT
[10] = test system: Burkholderia cepacia complex; test: Checkerboard FIC/FICI assay; assay type: cell-based, Burkholderia spp.
[11] = non-reversing and total heat flow
[12] = P. aeruginosa 6322, one value per panel row C-G
[13] = P. aeruginosa 6977, by checkerboard
[14] = P. aeruginosa 7745, by checkerboard
[15] = P. aeruginosa 9108, by checkerboard
[16] = B. cepacia 1793, Tobramycin in combination with BisEDT, by checkerboard

SMILES: CC[C@H]1OC(=O)[C@H](C)[C@@H](O[C@H]2C[C@@](C)(OC)[C@@H](O)[C@H](C)O2)[C@H](C)[C@@H](O[C@@H]2O[C@H](C)C[C@H](N(C)C)[C@H]2O)[C@](C)(OC)C[C@@H](C)C(=O)[C@H](C)[C@@H](O)[C@]1(C)O [CLR]
- MIC (M. abscessus complex; M. abscessus/massiliense complex (AMT0068-40)): 1 µg/mL (≈ 1.34 µM)
- MIC (M. abscessus complex; M. abscessus/massiliense complex (AMT0119-7)): 1 µg/mL (≈ 1.34 µM)
- MIC (M. abscessus complex; M. abscessus/massiliense complex (AMT0493-2), AMK R): 2 µg/mL (≈ 2.67 µM)
- MIC (M. abscessus complex; M. abscessus/massiliense complex (AMT01130-8)): 1 µg/mL (≈ 1.34 µM)
- MIC (M. abscessus complex; M. abscessus/massiliense complex (AMT1539)): 2 µg/mL (≈ 2.67 µM)
- MIC (M. abscessus complex; M. abscessus/massiliense complex (ATCL119977), Macrolide R (inducible)): >32^1 ^ μg/mL

SMILES: CC(C)(O/N=C(\C(=O)N[C@@H]1C(=O)N2C(C(=O)[O-])=C(C[n+]3ccccc3)CS[C@H]12)c1csc(N)n1)C(=O)O [Ceftazidime]
- MIC (S. aureus [1]): 8 µg/mL (≈ 14.6 µM)
- MIC (Enterococcus spp.; E. faecalis MMX 8960, VRE): > 32 µg/mL
- MIC (Enterococcus spp.; E. faecalis MMX 8961, VRE): > 32 µg/mL
- MIC (Enterococcus spp.; E. faecalis MMX 8962, VRE): > 32 µg/mL
- MIC (Enterococcus spp.; E. faecium MMX 485, VRE vanA): > 32 µg/mL
- MIC (Enterococcus spp.; E. faecium MMX 752, VRE vanA): > 32 µg/mL
- MIC, CLSI QC range (Enterobacteriaceae): (0.06-0.5) μg/mL
- MIC, CLSI QC range [2]: (1-4) μg/mL
- CLSI QC range of MIC (S. aureus [3]): (4-16) μg/mL

SMILES: C[C@@H](O)[C@H]1C(=O)N2C(C(=O)O)=C(SCCN=CN)C[C@H]12 [IPM]
- MIC90 ([4]; CA-MRSA): 2 µg/mL (≈ 6.68 µM)
- MIC90 ([4]; MRSA): >8 µg/mL
- MIC90 ([4]; MSSA): 0.03 µg/mL (≈ 0.1 µM)

SMILES: C[C@H]1COc2c(N3CCN(C)CC3)c(F)cc3c(=O)c(C(=O)O)cn1c23 [Levofloxacin, reference compound]
- MIC (S. aureus [1]): 0.12 µg/mL (≈ 0.332 µM)
- MIC (Enterococcus spp.; E. faecalis MMX 8960, VRE): 32 µg/mL (≈ 88.6 µM)
- MIC (Enterococcus spp.; E. faecalis MMX 8961, VRE): 64 µg/mL (≈ 177 µM)
- MIC (Enterococcus spp.; E. faecalis MMX 8962, VRE): 64 µg/mL (≈ 177 µM)
- MIC (Enterococcus spp.; E. faecium MMX 485, VRE vanA): > 64 µg/mL
- MIC (Enterococcus spp.; E. faecium MMX 752, VRE vanA): > 64 µg/mL
- MIC ([5]; Streptococcus agalactiae, S. agalactiae MMX 3741): 0.25 µg/mL (≈ 0.692 µM)
- MIC ([5]; Streptococcus pyogenes, S. pyogenes MMX 5091): 0.5 µg/mL (≈ 1.38 µM)
- MIC [6]: > 4 µg/mL

SMILES: Cc1onc(-c2ccccc2)c1C(=O)N[C@@H]1C(=O)N2[C@@H]1SC(C)(C)[C@@H]2C(=O)O [Oxacillin]
- CLSI QC range of MIC (S. aureus [3]): (0.12-0.25) μg/mL

SMILES: C1C[S][Bi]([S]CC[S][Bi]2[S]CC[S]2)[S]1 [X-ray amorphous BisEDT]
- Temperature cycling DSC: broad, weak endotherm (approximate peak max) ([7]; Cycle 1, heat to 85° C.): Broad, weak endotherm at 75 °C
- Temperature cycling DSC: small endotherm (peak max) ([7]; Cycle 4, heat to 130° C., 10° C./min): Small endotherm at 112 °C (peak max)
- Temperature cycling DSC: sharp exotherm (peak max) ([7]; Cycle 7, heat to 200° C., 10° C./min): Sharp exotherm at 160 °C (peak max)
- DSC: broad endotherm (peak max) ([7]; conventional DSC): Broad endotherm at 64 °C (peak max)
- DSC: sharp strong exotherm (peak max) ([7]; conventional DSC): Sharp strong exotherm at 168 °C
- DSC: small endotherm (peak max) ([7]; conventional DSC): Small endotherm at 112 °C (peak max)
- DSC: small exotherm (peak max) ([7]; conventional DSC): Small exotherm at 145 °C (peak max)
- Modulated DSC: broad weak endotherm (peak max) [7, 11]: Broad weak endotherm at 47 °C
- Modulated DSC: heat flow fluctuations [7, 11]: Heat flow fluctuations above 140 °C
- Modulated DSC: small endotherm (peak max) [7, 11]: Small endotherm at 104 °C (peak max)
- Modulated DSC: small exotherm (peak max) [7, 11]: Small exotherm at 134 °C (peak max)
- Modulated DSC: Tg (midpoint of step change) ([7]; reversing heat flow): Tg at 101 °C (midpoint of step change)
- Modulated DSC: ΔCp ([7]; reversing heat flow, at Tg): (ΔCp 0.3 J/(g*K)

SMILES: CCC[C@@H]1C[C@@H](C(=O)N[C@@H]([C@H]2O[C@H](SC)[C@H](O)[C@@H](O)[C@H]2O)[C@H](C)Cl)N(C)C1 [clindamycin, reference compound]
- MIC (S. aureus [1]): 0.12 µg/mL (≈ 0.282 µM)
- MIC (Enterococcus spp.; E. faecalis MMX 8960, VRE): > 32 µg/mL
- MIC (Enterococcus spp.; E. faecalis MMX 8961, VRE): > 32 µg/mL
- MIC (Enterococcus spp.; E. faecalis MMX 8962, VRE): > 32 µg/mL
- MIC (Enterococcus spp.; E. faecium MMX 485, VRE vanA): > 32 µg/mL
- MIC (Enterococcus spp.; E. faecium MMX 752, VRE vanA): > 32 µg/mL
- MIC ([8]; Bacteroides fragilis, ATCC25285, B. fragilis MMX 123 (ATCC 25285), QC): 1 µg/mL (≈ 2.35 µM)
- MIC ([8]; C. difficile MMX 4381 (ATCC 700057), QC, CC^1): 4 µg/mL (≈ 9.41 µM)
- MIC ([8]; C. difficile MMX 5680 (NCTC 13336), ribotype 027, CC^1 MET^R): 4 µg/mL (≈ 9.41 µM)
- MIC ([8]; C. difficile MMX 5681 (NCTC 13307), ribotype 012, CC^R): > 64 µg/mL
- MIC ([8]; C. difficile MMX 8272, ribotype 255, CC^1): 4 µg/mL (≈ 9.41 µM)
- MIC ([8]; C. difficile MMX 8279, ribotype 005, CC^R): > 64 µg/mL
- MIC ([8]; C. difficile MMX 8281, ribotype 010, CC^R): > 64 µg/mL
- MIC [6]: > 4 µg/mL

SMILES: NC[C@H]1O[C@H](O[C@H]2[C@H](O)[C@@H](O[C@H]3O[C@H](CO)[C@@H](O)[C@H](N)[C@H]3O)[C@H](N)C[C@@H]2N)[C@H](N)C[C@@H]1O [tobramycin, Tobramycin, reference compound]
- CFU higher in cultures with sputum vs without [9]: 0.5-1 log CFU/mL
- FICB (P. aeruginosa; [12]): 1
- MICB (P. aeruginosa; [12]): 128 µg/mL
- FICB (P. aeruginosa; [13]): 2
- MICB (P. aeruginosa; [13]): 256 µg/mL
- FICB (P. aeruginosa; [14]): 1
- MICB (P. aeruginosa; [14]): 0.5 µg/mL
- FICB (P. aeruginosa; [15]): 1
- MICB (P. aeruginosa; [15]): 0.0005 µg/mL
- FICB ([10]; B. cenocepacia 548, FIC of Tobramycin (Drug B) in combination with BisEDT): 0.25 and 0.5
- MICB ([10]; B. cenocepacia 548, MIC of Tobramycin (Drug B) in combination with BisEDT): 8 µg/mL and 16 µg/mL
- FICB ([10]; B. cenocepacia 813, FIC of Tobramycin (Drug B) in combination with BisEDT): 0.5 and 1
- FICB [10, 16]: 0.5 and 1
- MICB [10, 16]: 8 µg/mL and 16 µg/mL
- FICB ([10]; B. multivorans 1795, FIC of Tobramycin (Drug B) in combination with BisEDT): 1
- MICB ([10]; B. multivorans 1795, MIC of Tobramycin (Drug B) in combination with BisEDT): >256 µg/mL
